Reference: paper PMC3231940, “Disposition, metabolism and mass balance of [^14C]apremilast following oral administration” (Xenobiotica; the Fate of Foreign Compounds in Biological …, 2011)

Experiments:
[1] = Total radioactivity pharmacokinetics in plasma and whole blood; format: in vivo, human; details: single oral 20-mg dose
Method: Each subject was administered a single oral suspension of 20 mg (100 μCi) of [^14C] apremilast in distilled water (240mL total volume). Subjects were fasted for 8 h prior to and 4 h following dose administration. The residual radioactivity in the dosing vials was determined and accounted for approximately 0.3% of the total radioactivity. Dose administration, sample collection, sample processing and determination of total radioactivity were conducted at MDS Pharma Services (Lincoln, NE). Determination of apremilast in plasma, metabolite profiling and metabolite characterization were performed at XenoBiotic Laboratories, Inc. (Plainsboro, NJ).
Urine was collected pre-dose, 0-4, 4-8, 8-12, 12-24 and every 24 h thereafter up to 216h (9 days) following dose administration and was stabilized with one volume of pH 1.5 Sorensen's citrate buffer (25-mM sodium citrate buffer adjusted to pH 1.5). […] Blood (two 5-mL samples for plasma radioactivity counting, a 3-mL sample for whole blood radioactivity counting, a 2-mL sample for apremilast analysis and a 10-mL sample for metabolite profiling) was collected into heparinized tubes at pre-dose, 0.5, 1, 1.5, 2, 2.5, 3, 4, 6, 8, 12, 16, 24, 36, 48, 72, 96, 120, 144 and 168 h following dose administration. Blood samples collected for radioactivity counting were stored at or below -20°C until analysed. […] All urine, faecal homogenates and plasma samples were stored at or below -20°C until analysed.
All radioactivity determinations were performed using a Tri-Carb model 1600TR liquid scintillation counter (PerkinElmer, Wellesley, MA). For plasma and urine analysis, duplicate samples of a known volume were mixed with Ultima Gold XR scintillation cocktail and directly analysed by liquid scintillation counting. […] Using these criteria, the lower limit of quantification in plasma, blood, urine and faeces were 2.07 ng [^14C]apremilast equivalent/mL (ngEq/mL), 2.61 ngEq/g, 1.89 ngEq/mL and 2.52 ngEq/g, respectively. […]

[2] = test system: CYP3A4; parameters: method as in Wu et al. 2006; details: co-administration with ketoconazole, healthy subjects; ref Wu et al. 2006; cited from earlier work
[3] = test system: PDE4 enzyme isolated from U937 human monocytic cells; assay: PDE4 inhibition, cAMP hydrolysis assay; format: biochemical; details: PDE4 from U937 cells, cAMP hydrolysis
Method: (§1) PDE4 enzyme was isolated from U937 human monocytic cells and used for testing inhibition in a cAMP hydrolysis assay as previously described ([Schafer et al. 2010]). For the TNF-α production assay, human peripheral blood mono-nuclear cells (PBMC) were isolated from buffy coat of normal donor blood units (Blood Center of New Jersey, East Orange, NJ) by density centrifugation over Ficoll Hypaque (Pharmacia, Piscataway, NJ). Cells were cultured in RPMI 1640 (Life Technologies, Grand Island, NY) supplemented with 5% AB^+ human serum (Gemini Bio-products, Woodland, CA), 2-mM L-glutamine, 100-U/mL penicillin and 100-μg/mL streptomycin (Life Technologies). PBMC (2×10^5 cells) were plated in 96-well flat-bottom Costar tissue culture plates (Corning, NY) in duplicate. Cells were stimulated with lipopolysaccharides (LPS) (from Salmonella abortus equi; Sigma cat.no. L-1887, St.Louis, MO) at a final concentration of 1 ng/mL in the absence or presence of compounds. The compounds were dissolved in DMSO (Sigma) and subsequent dilutions were done in culture medium immediately before use. The compounds were added to cells 1 h before LPS stimulation. The cells were incubated for 16-18 h at 37°C in 5% CO2, and super-natants were then collected, diluted with culture medium and assayed for TNF-α levels by enzyme-linked immunosorbent assay (ThermoFisher, Rockford, IL). Fifty percent inhibitory concentrations (IC50) for the PDE4 enzymatic and TNF-α assay were calculated by non-linear regression analysis using Prism 5.1 (GraphPad Software). Regression curves were sigmoidal dose response curves with maximum and minimum constrained to 100% and 0%, respectively.

[4] = cited from earlier work
[5] = test system: TNF-α production by human peripheral blood mononuclear cells; assay: TNF-α production assay in LPS-stimulated PBMC; format: cell-based; details: LPS 1 ng/mL, 16-18 h, ELISA
Method: as §1

[6] = patients, 20 mg daily for 29 days, capsules, ref Gottlieb et al. 2008

## CCOc1cc([C@@H](CS(C)(=O)=O)N2C(=O)c3cccc(NC(C)=O)c3C2=O)ccc1OC [Apremilast, (+)-N-[2-[(lS)-1-(3-ethoxy-4-methoxyphenyl)-2-(methylsulfonyl)ethyl]-1,3-dioxo-2,3-dihydro-lH-isoindol-4-yl]acetamide]
[1]
  Share of AUC0-∞ for radioactivity in plasma between 0 and 96 h: approximately 90%
  Share of AUC0-∞ for radioactivity in plasma from AUC96-∞: 10%
[1]; median (min-max), listed as [^14C]apremilast
  Plasma total radioactivity Tmax: < 2 h
[2]
  Increase in apremilast AUC: 36%
  Increase in mean apremilast Cmax: 5%
[3]
  IC50: 74 nM
[4]; patients with severe plaque-type psoriasis, multiple daily doses, ref Gottelieb et al. 2008
  half-life: 8.2 h
[4]; [6]
  AUC0-24: 1799 ng·h/mL
  Cmax: 207 ng/mL
[5]
  IC50: 77 nM
